Results taken from patent US20140294991A1, “MEDICAMENT FOR TREATING ANTERIOR EYE DISEASE COMPRISING REBAMIPIDE AND A TEAR-RETAINING AGENT” (OTSUKA PHARMACEUTICAL CO., LTD., priority 2011, published 2014).

Test system: tear deficient rat model
Assay: Tear volume by Schirmer's test in capsaicin-induced tear deficient rat model
Format: in vivo, Wister/ST rat
Conditions: Pharmacological Experiment 3; repeated administration test; compared with non-treated group (FIG. 5)
Description: To evaluate the utility of a combination of rebamipide and a tear-retaining agent or an artificial tear, rebamipide and sodium hyaluronate were administrated in combination to a tear deficient rat model, and the tear volume was measured and the corneal epithelial damage was evaluated. The tests were carried out in single administration and repeated administration.
Capsaicin (50 mg/kg) was administered to a 4-day-old Wister/ST rat, and 4 weeks later the rat was used as a tear deficient rat model.
For the single administration test, 5 μl of each drug solution for one eye was topically administrated to the rats of the “2% rebamipide-treated” group, “0.1% sodium hyaluronate-treated” group, and “2% rebamipide+0.1% sodium hyaluronate-treated” group. For the combination administration, 0.1% sodium hyaluronate was administrated 5 minutes after the administration of 2% rebamipide.
For the repeated administration test, 5 μl of each drug solution for one eye was topically administrated to the rats of the “2% rebamipide-treated” group (4 times/day), “0.1% sodium hyaluronate-treated” group (6 times/day), and “2% rebamipide (4 times/day)+0.1% sodium hyaluronate (6 times/day)-treated” group. […]
The tear volumes were measured as an index of a tear-retention capacity by Schirmer's test.

Compound: O=C(NC(Cc1cc(=O)[nH]c2ccccc12)C(=O)O)c1ccc(Cl)cc1 (stereo not shown) [rebamipide, 2-(4-chlorobenzoylamino)-3-[2(1H)-quinolin-4-yl]propionic acid]
- tear volume (tear-retention capacity): significantly higher
